# Reference: patent US10073084B2, “Predicting allergic reactions” (priority 2010, dated 2018)
# Entries after “also recorded” stand apart in the source; their conditions may differ. Where two headings read alike, the source gives them in different places.
# Legend:
# [1] = test system: skin biopsy from the same donor; assay: Skin explant assay: histological damage grade, compound-treated DC + autologous T cells + autologous skin; settings: for Total positive: positive (Grade II-IV) explants / explants tested; for Grade I (number of skin explants with this histological grade): Grade I = negative; for Skin Explant Result (grade observed): Table 3
# IFN-γ = IFN-γ levels in supernatant of drug treated FastDC co-cultured with autologous cells (FACs); assay type: cell-based, human; settings: for levels of IFN-γ (in words): FIG. 9
# [2] = test system: chemokine (C-C motif) receptor 2 (CCR2); assay: Real-time RT-PCR gene expression in treated dendritic cells: CCR2; assay type: cell-based, human; settings: 3, 6, 11 and 24 h, single donor, FIG. 6
# [3] = test system: cAMP-responsive element modulator (CREM); assay: Real-time RT-PCR gene expression in treated dendritic cells: CREM; assay type: cell-based, human; settings: 3, 6, 11 and 24 h, single donor, FIG. 6
# [4] = test system: skin biopsy from the same donor
# CD86, CD83 and HLA-DR = assay: Flow cytometric analysis of surface markers on treated monocyte-derived dendritic cells; assay type: cell-based, human; settings: after 24 hours of treatment, non-sensitizers compared with control cells
# autologous T cells [5] = assay: Modified T cell proliferation assay ([3H] thymidine), drug treated FastDC + autologous T cells; assay type: cell-based, human
# allogeneic T cells = assay: T cell proliferation assay ([3H]-Thymidine), treated DC with allogeneic T cells (Example 3); assay type: cell-based, human; settings: FIG. 7C
# [6] = from publicly available www.sens-it-iv website; cited from earlier work
# autologous T cells [7] = assay: T cell proliferation assay ([3H]-Thymidine), treated DC with autologous T cells (Example 3); assay type: cell-based, human
# [8] = Table 2, concentrations of Table 1, positive grade
# [9] = FIG. 8 / FIG. 10, FastDC treated 24 hours, five days co-culture
# [10] = Table 2, concentrations of Table 1
compound,measurement,setting,value
"CCOC(=O)c1ccc(N)cc1 [Bz, Benzocaine]",Total positive,[1]; Table 2,1/1
"Nc1nnc(-c2cccc(Cl)c2Cl)c(N)n1 [L amot, Lamotrigine]",Grade II (number of skin explants with this histological grade),[1]; [8],1
same,Grade III (number of skin explants with this histological grade),[1]; [8],2
same,Grade IV (number of skin explants with this histological grade),[1]; [8],1
same,Total positive,[1]; Table 2,4/4
"CCCCCCCCCCCCOS(=O)(=O)[O-].[Na+] [SDS, Sodium Dodecyl Sulfate]",IFNγ Mean,IFN-γ; Table 3,80.33
same,"CCR2 expression, logarithmic fold change (LFC)",[2],flipping from a down-regulation to an up-regulation
same,"CREM expression, logarithmic fold change (LFC)",[3],~0
same,Total positive,[4]; human,3/6
same,"expression of the markers CD86, CD83 and HLA-DR","CD86, CD83 and HLA-DR",increase in expression
same,autologous T cell proliferation (level in words),autologous T cells [5]; [9],low
"CC(C)O [IP, Isopropanol]",IFNγ Mean,IFN-γ; Table 3,207.26
same,Total positive,[1]; Table 2,0/5
same,autologous T cell proliferation (level in words),autologous T cells [5]; [9],low
"CC1(C)S[C@@H]2[C@H](NC(=O)[C@H](N)c3ccc(O)cc3)C(=O)N2[C@H]1C(=O)O [Amoxo, Amoxicillin]",Grade IV (number of skin explants with this histological grade),[4],1
same,Total positive,[4],4/5
"NC[C@@H]1O[C@H](O[C@H]2[C@@H](O)[C@H](O[C@@H]3[C@@H](O)[C@H](N)C[C@H](N)[C@H]3O[C@H]3O[C@H](CN)[C@@H](O)[C@H](O)[C@H]3N)O[C@@H]2CO)[C@H](N)[C@@H](O)[C@@H]1O [Neo, Neomycin]",Grade I (number of skin explants with this histological grade),[4],1
same,Total positive,[4],4/5
"CN(C)C(=N)N=C(N)N [Met, Metformin]",levels of IFN-γ (in words),IFN-γ,low
same,Grade I (number of skin explants with this histological grade),[1]; [10],2
same,Total positive,[1]; Table 2,0/2
same,autologous T cell proliferation (level in words),autologous T cells [5]; [9],low
"CN(Cc1cnc2nc(N)nc(N)c2n1)c1ccc(C(=O)N[C@@H](CCC(=O)O)C(=O)O)cc1 [MTX, Methotrexate]",levels of IFN-γ (in words),IFN-γ,low
same,Grade I (number of skin explants with this histological grade),[1]; [10],1
same,Total positive,[1]; Table 2,0/1′
same,autologous T cell proliferation (level in words),autologous T cells [5]; [9],low
Triton-X-100,IFNγ Mean,IFN-γ; Table 3,33.54
same,"CCR2 expression, logarithmic fold change (LFC)",[2],down-regulated after each time period
same,level of incorporation of [3H]-Thymidine,allogeneic T cells,"approximately 100,000 CPM"
same,"CREM expression, logarithmic fold change (LFC)",[3],up-regulated for each time point
same,Grade I (number of skin explants with this histological grade),[4],4
same,Skin Explant Result (grade observed),[4],Grade I
same,Total positive,[4],0/4
same,"expression of the markers CD86, CD83 and HLA-DR","CD86, CD83 and HLA-DR",increase in expression
same,autologous T cell proliferation (level in words),autologous T cells [5]; [9],low
"Sc1nc2ccccc2s1 [2Mercp, 2-mercaptobenzothiazole]",LLNA Class,[6],Moderate
same,IFNγ Mean,IFN-γ; Table 3,628.81
same,Grade I (number of skin explants with this histological grade),[1]; [10],1
same,Grade II (number of skin explants with this histological grade),[1]; [8],1
same,Grade III (number of skin explants with this histological grade),[1]; [8],2
same,Total positive,[1]; Table 2,3/4
"C[S+](C)[O-] [DMSO, Dimethyl sulfoxide]",Grade I (number of skin explants with this histological grade),[1]; [10],2
same,Grade II (number of skin explants with this histological grade),[1]; [8],1
same,Total positive,[1]; Table 2,1/3
same,Skin Explant Result (grade observed),[1],Grade I; also recorded: Grade II
same,autologous T cell proliferation (level in words),autologous T cells [5]; [9],low
Penicillin,LLNA Class,[6],Weak
same,IFNγ Mean,IFN-γ; Table 3,549.25
same,Grade II (number of skin explants with this histological grade),[1]; [8],1
same,Grade III (number of skin explants with this histological grade),[1]; [8],3
same,Total positive,[1]; Table 2,4/4
same,Skin Explant Result (grade observed),[1]; listed as Penicillin G,Grade III; also recorded: Grade II
"O=CC=Cc1ccccc1 [CINN, Cinnamaldehyde]",IFNγ Mean,IFN-γ; Table 3,227.76
same,Grade I (number of skin explants with this histological grade),"[4]; human, 3 days",2
same,Total positive,"[4]; human, 3 days",2/4
"OCC(O)CO [Gly, Glycerol]",IFNγ Mean,IFN-γ; Table 3,144.28
same,Total positive,[1]; Table 2,1/4
same,autologous T cell proliferation (level in words),autologous T cells [5]; [9],low
C=CCc1ccc(O)c(OC)c1 [Eugenol],IFNγ Mean,IFN-γ; Table 3,425.66
same,"CCR2 expression, logarithmic fold change (LFC)",[2],down-regulated from 3-11 hours and then is up-regulated at 24 hours
same,difference in counts per minute (CPM) versus SDS,allogeneic T cells,greater than two-fold
same,"CREM expression, logarithmic fold change (LFC)",[3],up-regulated until 24 hours when it becomes down-regulated
same,Grade IV (number of skin explants with this histological grade),"[4]; human, 3 days",1
same,Total positive,"[4]; human, 3 days",5/5
same,"expression of the markers CD86, CD83 and HLA-DR","CD86, CD83 and HLA-DR",reduced peak of expression
same,T cell proliferation response versus SDS-treated DC,"autologous T cells [7]; summary statement, T cell source not stated, not reproducible",Two-fold
same,[3H]-Thymidine count relative to SDS and Triton X-100,"autologous T cells [7]; treated DC with autologous T cells, FIG. 7B",two-fold
"O=S(=O)([O-])[O-].[Zn+2] [ZnSO4, Zinc Sulphate]",LLNA Class,[6],Non sensitiser
same,IFNγ Mean,IFN-γ,13.39
same,Grade I (number of skin explants with this histological grade),[4],2
same,Total positive,[4],2/4
same,autologous T cell proliferation (level in words),autologous T cells [5],low
Tween 20,LLNA Class,[6],Non sensitiser
same,IFNγ Mean,IFN-γ; Table 3,188.24
same,Grade I (number of skin explants with this histological grade),[1]; [10],2
same,Total positive,[1]; Table 2,0/2
same,Skin Explant Result (grade observed),[1],Grade I
same,autologous T cell proliferation (level in words),autologous T cells [5]; [9],low
"CCC(C)(C)C(=O)O[C@H]1C[C@@H](C)C=C2C=C[C@H](C)[C@H](CC[C@@H]3C[C@@H](O)CC(=O)O3)[C@H]21 [SimV, Simvastatin]",Grade I (number of skin explants with this histological grade),[1]; [10],2
same,Grade III (number of skin explants with this histological grade),[1]; [8],1
same,Total positive,[1]; Table 2,1/3
"CN(C)C=O [DMT, Dimethyl formamide]",IFNγ Mean,IFN-γ; Table 3,158.59
same,Grade I (number of skin explants with this histological grade),[1]; [10],3
same,Total positive,[1]; Table 2,0/3
same,Skin Explant Result (grade observed),[1],Grade I
same,autologous T cell proliferation (level in words),autologous T cells [5]; [9],low
"N[C@@H](CCC(=O)O)C(=O)O [LGA, Glutamic Acid]",IFNγ Mean,IFN-γ; Table 3,48.40
same,Grade I (number of skin explants with this histological grade),[1]; [10],2
same,Grade II (number of skin explants with this histological grade),[1]; [8],1
same,Total positive,[1]; Table 2,1/3
same,Skin Explant Result (grade observed),[1]; listed as LGA (glutamic Acid),Grade I; also recorded: Grade II
same,autologous T cell proliferation (level in words),autologous T cells [5]; [9],low
